Test results as given in patent US7776913B2, “Carnitines for treating or preventing disorders caused by andropause” (Sigma-Tau Industrie Farmaceutiche Riunite S.p.A., priority 2002, dated 2010).

Legend:
[1] = tested on: Patients aged over 60 years with lowered blood concentrations of free and total testosterone; assay: Clinical trial overall: andropause symptoms and pathological changes of the cervico-urethral district; assay type: in vivo, human; settings: unlike placebo
Source text: (§1) Reported here below is a clinical trial conducted in order to evaluate the activity of the combination according to the association in the treatment of the symptoms of male ageing.
Patients aged over 60 years with lowered blood concentrations of free and total testosterone (The Aging Male 4: 151-162, 2001) and complaining of symptoms figuring in the working definition of andropause proposed by the International Society for the Study of the Aging Male (I.S.S.A.M.) (The Aging Male 4: 151-162, 2001): reduced libido or sex drive and erectile function, depressed mood, difficulty concentrating, irritability and fatigue. […]
Medical history-taking and physical examinations were done for all patients. […] Total blood prostate-specific antigen (PSA) (ng/ml) as measured with the automatic test and monoclonal antibodies [Rigatti P., Scattoni V.: PSA: Antigene prostatico specifico. […] Prostate volume (cm^3) as measured by suprapubic ultrasonography and calculated by means of the three diameters rule [Rigatti P. Scattoni V.: PSA: Antigene prostatico specifico. […] Peak systolic volume (PSV) (cm/sec), end-diastolic velocity (EDV) (cm/sec), and Resistance Index (RI) (%) of the penile arteries (right and left cavernous e dorsal) as measured by means of penile basal and dynamic colour Doppler ultrasonography. RI was calculated as follows: (PSV-EDV/EDV)×100 (Urology 1997: 49: 822-830). • 4. […]

[2] = tested on: Patients aged over 60 years with lowered blood concentrations of free and total testosterone; assay: Blood prolactin levels; assay type: in vivo, human; parameters: unit not given here; settings: mean ± SD
Source text: as §1
(§2) Patients aged over 60 years with lowered blood concentrations of free and total testosterone (The Aging Male 4: 151-162, 2001) and complaining of symptoms figuring in the working definition of andropause proposed by the International Society for the Study of the Aging Male (I.S.S.A.M.) (The Aging Male 4: 151-162, 2001): reduced libido or sex drive and erectile function, depressed mood, difficulty concentrating, irritability and fatigue.
(§3) The above-mentioned compounds were presented to the patients in anonymous containers and administered for 6 months.
(§4) Medical history-taking and physical examinations were done for all patients. The following data were also collected prior to the start of treatment, after 1, 3 and 6 months of treatment: • 1. Total blood prostate-specific antigen (PSA) (ng/ml) as measured with the automatic test and monoclonal antibodies [Rigatti P., Scattoni V.: PSA: Antigene prostatico specifico. Edizioni Medico Scientifiche (EDIMES) Pavia, 1997]. • 2. Prostate volume (cm^3) as measured by suprapubic ultrasonography and calculated by means of the three diameters rule [Rigatti P. Scattoni V.: PSA: Antigene prostatico specifico. […] Peak systolic volume (PSV) (cm/sec), end-diastolic velocity (EDV) (cm/sec), and Resistance Index (RI) (%) of the penile arteries (right and left cavernous e dorsal) as measured by means of penile basal and dynamic colour Doppler ultrasonography. RI was calculated as follows: (PSV-EDV/EDV)×100 (Urology 1997: 49: 822-830). • 4. […] A score was calculated for each patient. • 7. Depression was quantified by means of the Hamilton Depression Scale questionnaire (DMS III) (Cancer 94: 2481-2489, 2002). A score was calculated for each patient. • 8. The subjective sensation of fatigue was calculated using the fatigue scale (Lison L.: Statistica applicata alla biologia sperimentale. Milano: Casa Editrice Ambrosiana, 1972). A score was calculated for each patient. • 9. […]

[3] = tested on: Patients aged over 60 years with lowered blood concentrations of free and total testosterone; assay: Blood levels of total testosterone; assay type: in vivo, human; settings: for Total testosterone: blood, mean ± SD
Source text: as §1, §2, §3
(§5) Medical history-taking and physical examinations were done for all patients. The following data were also collected prior to the start of treatment, after 1, 3 and 6 months of treatment: • 1. Total blood prostate-specific antigen (PSA) (ng/ml) as measured with the automatic test and monoclonal antibodies [Rigatti P., Scattoni V.: PSA: Antigene prostatico specifico. Edizioni Medico Scientifiche (EDIMES) Pavia, 1997]. • 2. Prostate volume (cm^3) as measured by suprapubic ultrasonography and calculated by means of the three diameters rule [Rigatti P. Scattoni V.: PSA: Antigene prostatico specifico. Edizioni Medico Scientifiche (EDIMES) Pavia, 1997]. • 3. Peak systolic volume (PSV) (cm/sec), end-diastolic velocity (EDV) (cm/sec), and Resistance Index (RI) (%) of the penile arteries (right and left cavernous e dorsal) as measured by means of penile basal and dynamic colour Doppler ultrasonography. RI was calculated as follows: (PSV-EDV/EDV)×100 (Urology 1997: 49: 822-830). • 4. Duration of full erections (in minutes) in the course of a recording period of three nights performed with Rigiscan. […] Free and total blood testosterone, LH and prolactin levels (The Aging Male 4: 151-162, 2001). • 6. Sexual function was checked by means of semistructured interviews and administration of the International Index of Erectile Function (IIEF-15) (Urology 1997: 49: 822-830). A score was calculated for each patient. • 7. Depression was quantified by means of the Hamilton Depression Scale questionnaire (DMS III) (Cancer 94: 2481-2489, 2002). A score was calculated for each patient. • 8. The subjective sensation of fatigue was calculated using the fatigue scale (Lison L.: Statistica applicata alla biologia sperimentale. Milano: Casa Editrice Ambrosiana, 1972). A score was calculated for each patient. • 9. Side effects. […]

[4] = tested on: Patients aged over 60 years with lowered blood concentrations of free and total testosterone; assay: Blood levels of LH; assay type: in vivo, human; settings: for LH: blood, mean ± SD
Source text: as §1, §2, §3
(§6) Medical history-taking and physical examinations were done for all patients. The following data were also collected prior to the start of treatment, after 1, 3 and 6 months of treatment: • 1. Total blood prostate-specific antigen (PSA) (ng/ml) as measured with the automatic test and monoclonal antibodies [Rigatti P., Scattoni V.: PSA: Antigene prostatico specifico. Edizioni Medico Scientifiche (EDIMES) Pavia, 1997]. • 2. Prostate volume (cm^3) as measured by suprapubic ultrasonography and calculated by means of the three diameters rule [Rigatti P. Scattoni V.: PSA: Antigene prostatico specifico. Edizioni Medico Scientifiche (EDIMES) Pavia, 1997]. • 3. Peak systolic volume (PSV) (cm/sec), end-diastolic velocity (EDV) (cm/sec), and Resistance Index (RI) (%) of the penile arteries (right and left cavernous e dorsal) as measured by means of penile basal and dynamic colour Doppler ultrasonography. RI was calculated as follows: (PSV-EDV/EDV)×100 (Urology 1997: 49: 822-830). • 4. Duration of full erections (in minutes) in the course of a recording period of three nights performed with Rigiscan. […] Free and total blood testosterone, LH and prolactin levels (The Aging Male 4: 151-162, 2001). • 6. Sexual function was checked by means of semistructured interviews and administration of the International Index of Erectile Function (IIEF-15) (Urology 1997: 49: 822-830). A score was calculated for each patient. • 7. Depression was quantified by means of the Hamilton Depression Scale questionnaire (DMS III) (Cancer 94: 2481-2489, 2002). A score was calculated for each patient. • 8. The subjective sensation of fatigue was calculated using the fatigue scale (Lison L.: Statistica applicata alla biologia sperimentale. Milano: Casa Editrice Ambrosiana, 1972). A score was calculated for each patient. • 9. Side effects.
(§7) Blood concentrations of PSA, free and total testosterone, prolactin LH, prostate volume, PSV, EDV, RI, full erection duration, IIEF-15, DMS III, and fatigue scale scores were compared between and within groups by means of factorial analysis of variance for randomised blocks (1 patient=1 block). Comparison of the mean values was done on the raw data with the exclusion of RI which used data subjected to angular transformation (sin^−1 √P/100) for the comparisons. Side effects were compared using the chi-square etst (Lison L.: Statistica applicata alla biologia sperimentale. Milano: Casa Editrice Ambrosiana, 1972).

[5] = tested on: Patients aged over 60 years with lowered blood concentrations of free and total testosterone; assay: Hamilton Depression Scale questionnaire (DMS III); assay type: in vivo, human; settings: for Hamilton Depression Scale questionnaire (DMS III) score: mean ± SD
Source text: as §1, §2, §3, §6, §7

[6] = tested on: Patients aged over 60 years with lowered blood concentrations of free and total testosterone; assay: Duration of full nocturnal erections, three nights by Rigiscan; assay type: in vivo, human; settings: for Duration of full erections: three nights by Rigiscan, mean ± SD
Source text: as §1, §2, §3, §5

[7] = tested on: Patients aged over 60 years with lowered blood concentrations of free and total testosterone; assay: Prostate volume by suprapubic ultrasonography (three diameters rule); settings: mean ± SD
Source text: as §1, §2, §3, §4

[8] = tested on: Patients aged over 60 years with lowered blood concentrations of free and total testosterone; assay: Blood levels of free testosterone; assay type: in vivo, human; settings: mean ± SD
Source text: as §1, §2, §3, §4

[9] = tested on: patients in the andropause; settings: 40×2 mg/day; cited from earlier work
[10] = tested on: Patients aged over 60 years with lowered blood concentrations of free and total testosterone; assay: International Index of Erectile Function questionnaire (IIEF-15); assay type: in vivo, human; settings: mean ± SD
Source text: as §1, §2, §3, §6, §7

testosterone undecaonate
Effect on the symptoms of andropause [1]: capable of attenuating
Prolactin ([2]; 3 months of therapy): 7.4 ± 1.7
Prolactin ([2]; 6 months of therapy): 7.3 ± 1.8
Prolactin ([2]; before therapy): 7.7 ± 1.6
Change in total serum testosterone (in words) ([3]; at either 3 or 6 months): no significant increases
Total testosterone ([3]; 3 months of therapy): 15.5 ± 3.9 nmol/L
Total testosterone ([3]; 6 months of therapy): 15.8 ± 2.6 nmol/L
Total testosterone ([3]; before therapy): 14.5 ± 2.1 nmol/L
Change in blood levels of LH (in words) ([4]; at 3 months, F=229 P<0.01): statistically significant reduction
Change in blood levels of LH (in words) ([4]; at 6 months): significant reduction
LH ([4]; 3 months of therapy): 4.3 ± 0.6 IU/l
LH ([4]; 6 months of therapy): 4.2 ± 1.2 IU/l
LH ([4]; before therapy): 8.9 ± 0.6 IU/l
Hamilton Depression Scale questionnaire (DMS III) score ([5]; 3 months of therapy): 5.8 ± 0.7
Hamilton Depression Scale questionnaire (DMS III) score ([5]; 6 months of therapy): 5.1 ± 1.3
Change in DMS III scores (in words) ([5]; at 3 months, F=4.07, P<0.05): significant decrease
Significant decrease in DMS III scores (in words) ([5]; at 6 months, F=2.5, P=n.s.): but not at 6 months
DMS III score compared between groups ([5]; at 6 months, comparison with placebo (and testosterone)): No significant difference
Hamilton Depression Scale questionnaire (DMS III) score ([5]; before therapy): 6.6 ± 1.0
Duration of full erections ([6]; 3 months of therapy): 112.7 ± 21.1 min
Duration of full erections ([6]; 6 months of therapy): 119.6 ± 26.0 min
Change in duration of full nocturnal erections (in words) ([6]; at 6 months): significant increase
Duration of full erections ([6]; before therapy): 108.3 ± 18.7 min
Prostate volume ([7]; 3 months of therapy): 15.5 ± 3.0 cm^3
Prostate volume ([7]; 6 months of therapy): 15.5 ± 2.6 cm^3
Prostate volume ([7]; before therapy): 15.3 ± 2.8 cm^3
Free blood testosterone ([8]; 3 months of therapy): 19.5 ± 4.2 pg/mL
Free blood testosterone ([8]; 6 months of therapy): 19.7 ± 4.0 pg/mL
Free blood testosterone ([8]; before therapy): 4.4 ± 0.8 pg/mL
Benefit in patients in the andropause [9]: fair amount of benefit
IIEF-15 Erectile Function section score ([10]; 3 months of therapy): 16.7 ± 3.7
IIEF-15 General Satisfaction section score (Table 18 title) ([10]; 3 months of therapy): 3.7 ± 1.1
IIEF-15 Intercourse Satisfaction section score ([10]; 3 months of therapy): 4.8 ± 0.8
IIEF-15 Orgasmic Function section score (Table 17 title) ([10]; 3 months of therapy): 3.9 ± 0.9
IIEF-15 Sexual Desire section score ([10]; 3 months of therapy): 5.7 ± 0.8
IIEF-15 Erectile Function section score ([10]; 6 months of therapy): 20.2 ± 5.3
